Data as given in patent US12527814B2, “Treatment of an ocular infection, composition and methods thereof” (priority 2019, dated 2026).
Where two headings read alike, the source gives them in different places.

Legend:
[1] = test system: Tsukamurella; settings: literature refs 3, 12; cited from earlier work
[2] = test system: T. pulmonis-PW1004; experiment: Treatment of experimental Tsukamurella keratitis in rabbits
Protocol: 6.4.4 Development of a rabbit model for Tsukamurella keratitis. Bacterial suspensions used to infect rabbits were prepared by culturing T. pulmonis-PW1004 in BHI for 48 h. Eight male NZW rabbits, 1.5-2.0 kg, were inoculated intrastromally as described previously^37. Corneas of 4 rabbits were injected with approximately 10 μl (i.e., 10^6 CFU) of T. pulmonis-PW1004 using a microliter syringe with a 30 G needle. Another 4 rabbit corneas were challenged with plain culture medium as the control. Rabbits were monitored daily for signs of disease. At 24 h PI, rabbit eyes were photographed, evaluated for pathology, and sacrificed. After euthanasia, the corneas of each rabbit were surgically removed for histopathological and immunohistochemical analyses and bacterial enumeration.
6.4.5 Treatment of experimental Tsukamurella keratitis. Efficacy of the two antibiotics, topical 0.5% Cravit® levofloxacin (Santen Pharmaceutical Company, Japan) and 0.02% PHMB (Lonza, Switzerland), for the treatment of Tsukamurella keratitis were evaluated, respectively. Tsukamurella keratitis was first established in 12 NZW rabbits (n=4 per group) using procedures as described above. Infection was allowed to proceed for 24 h before initiation of antibiotic therapy. These 12 NZW rabbits were divided into 3 topical treatment groups: (1) 0.5% levofloxacin, (2) 0.02% PHMB, and (3) saline. Treatment regimens of levofloxacin and PHMB were performed according to Fiscella et al. and Kowalski et al., respectively, with slight modifications^16,17. For the first group of rabbits treated with levofloxacin (n=4), drops (50 μl) of levofloxacin were applied to the affected eyes hourly for 10 doses over 3 days. For the second group of rabbits treated with PHMB (n=4), drops (50 μl) of PHMB were applied to the affected eyes hourly for 8 doses over 3 days. Rabbits in the third control group (n=4) received the same regimen of sterile saline (0.85% NaCl) hourly for 10 doses over 3 days. In addition to these 3 treatment groups, two extra NZW rabbits without infection were used as controls (i.e., mock-infected and mock-treated rabbits), receiving the same regimen of saline for 3 days. One hour after the final instillation of the antibiotics and saline drops, rabbit eyes were photographed, evaluated for pathology, and sacrificed. The treatment efficacy was compared and evaluated by the quantitative culture and histopathological analysis of the infected corneas.
6.4.6 Quantification of Tsukamurella cells. To quantify the number of viable Tsukamurella in the cornea, the cornea harvested from each rabbit was cut into smaller pieces using a sterile scalpel. The corneal pieces were placed into a sterile tube containing 500 μl of PBS (pH 7.2). Each tissue was homogenized, and homogenates were serially diluted 10-fold in PBS (pH 7.2). One hundred microliters of each diluted sample was plated in triplicate on the BHI agar and incubated at 37° C. under aerobic conditions for 48 h. The number of bacteria was determined and expressed as CFU/cornea.
To examine the histopathology of corneal tissues of rabbits challenged with the PW1004-WT and its derivative mutants, excised infected eyes, including the cornea of challenged rabbits, were subjected to histopathological examination. Corneal tissues harvested from the rabbits were fixed in 10% neutral-buffered formalin, embedded in paraffin, and stained with hematoxylin and eosin (H&E) according to Fischer et al.^39.

[3] = test system: T. pulmonis-PW1004; settings: for Zone of inhibition: 6 mm disk, 48 h, 37° C.
Text: Disk diffusion assay was initially used to determine the susceptibility of T. pulmonis-PW1004 against various concentrations of PHMB. Briefly, standard paper disks, 6 mm in diameter, impregnated with different dilutions of PHMB (0.0005%, 0.001%, 0.0025%, 0.005%) were placed onto BHI agar plates inoculated with overnight culture of a 0.5 McFarland standard prepared from T. pulmonis-PW1004, following standard procedures^15. Paper disks soaked in 0.85% NaCl were used as the control. Zones of inhibition were measured after 48 h of incubation at 37° C. under aerobic conditions. […] Next, we re-examined the susceptibility of the 4 contact lens solutions against the 7 Tsukamurella species by adjusting the final concentration of PHMB to 0.0025%, following the procedures as described in the previous paragraph.

[4] = test system: T. tyrosinosolvens-PW899
Protocol: (§1) 6.4.9 In vitro susceptibility of planktonic cultures of Tsukamurella against contact lens and PHMB solutions. A susceptibility test was performed following the procedures as described in FDA/ISO14729 stand-alone procedure for disinfecting products^13. Briefly, 0.1 ml of 1×10^8 CFUs/ml bacterial suspension from 7 different Tsukamurella species was added into 10 ml each of the 4 commercial contact lens solutions, respectively, and the mixture was incubated at room temperature according to the manufacturer's recommended disinfection time (Table 1). After incubation, a 1-ml aliquot was withdrawn from each mixture and added to 9 ml of Dey-Engley neutralizing broth (Sigma, USA) for 15 min at room temperature for neutralization of the preservative. The mixture was then serially diluted, and 100 μl of each diluted sample was plated in triplicate on the BHI agar for sampling of viable bacteria. P. aeruginosa ATCC27853 was used as a control. The mean logarithmic reduction was calculated. According to the guideline, only a contact lens solution capable of reducing the viability of starting concentration of bacteria by 3-log is defined as satisfactory. All experiments were performed in triplicate and repeated 3 times along with the control strain.

[5] = test system: T. pulmonis-PW1004
Protocol: as §1

[6] = PHMB 0.005% compared with 0.0025%
[7] = 0.02% PHMB topical for 3 days, compared to saline control rabbits

For `O=C(N[C@H](CO)[C@H](O)c1ccc([N+](=O)[O-])cc1)C(Cl)Cl` [chloramphenicol], which “susceptibility of Tsukamurella to topical antibiotic eye drops” value [1] is on record?
Its value is “generally resistant”.

Which “corneal perforation and adverse signs” value ([2]; rabbit, in vivo) does the source give for `C[C@H]1COc2c(N3CCN(C)CC3)c(F)cc3c(=O)c(C(=O)O)cn1c23` [levofloxacin] here?
Its value is “corneal perforations with severe discharges accompanied by behavioral abnormalities”.

With polyhexamethylene biguanide [PHMB] as the compound, how does the Zone of inhibition ([3]; PHMB concentration 0.0005%) read?
The Zone of inhibition was 0 mm.

And the Zone of inhibition ([3]; PHMB concentration 0.001%)?
Its Zone of inhibition is 0 mm.

What about the Zone of inhibition ([3]; PHMB concentration 0.0025%) of the same compound?
The Zone of inhibition was 13 mm.

What about the Zone of inhibition ([3]; PHMB concentration 0.005%) of the same compound?
Its Zone of inhibition is 14 mm.

What about the “minimal concentration that achieved good efficacy” value ([3]; disk diffusion, preliminary results) of the same compound?
Its value is 0.0025%.

And the log reduction ([4]; PHMB 0.0005%)?
Its log reduction is under 3 log.

What about the log reduction ([4]; PHMB 0.001%) of the same compound?
The log reduction was under 3 log.

What about the log reduction ([4]; PHMB 0.0025%) of the same compound?
The log reduction was 3 log.

And the “further reduction of bacterial numbers” value [4, 6]?
Its value is “could not be further reduced”.

And the log reduction ([5]; PHMB 0.0005%)?
The log reduction was under 3 log.

What about the log reduction ([5]; PHMB 0.001%) of the same compound?
Its log reduction is under 3 log.

What about the log reduction ([5]; PHMB 0.0025%) of the same compound?
Its log reduction is 3 log.

And the “further reduction of bacterial numbers” value [5, 6]?
The value was “could not be further reduced”.

And the “PMN infiltration in corneal stroma and epithelium” value [2, 7]?
The value was “less evident”.

What about the “histological examination: stromal edema and capillary formation” value [2, 7] of the same compound?
The value was “lower degree of stromal edema as well as capillary formation”.

What about the “keratitis symptoms, gross appearance” value [2, 7] of the same compound?
The value was “keratitis symptoms became less severe”.

And the “number of bacteria recovered from the cornea” value ([2]; 0.02% PHMB topical, hourly 8 doses over 3 days, started 24 h PI, P<0.01 vs saline)?
Its value is 1.05±0.07 log.

And the corneal perforation ([2]; 0.02% PHMB topical, whole course of treatment)?
The corneal perforation was “did not observe corneal perforation”.

And the “toxicity in rabbit corneal tissues” value ([2]; PHMB 0.02% topical)?
The value was “no toxicity”.
